Reference: EP1212309B1, “CASPASE INHIBITOR” (LG Chem Investment, Ltd., priority 1999, dated 2001)

Assays:
PARP cleavage = experiment: Con A-treated mouse liver: Western blotting of PARP cleavage; type: in vivo; details: liver lysate of Con A-treated mice, various doses, Western blot
Protocol: In this experiment, the cleavage of PARP was identified by the appearance on Western blot analysis of an 85 kDa-cleavage product in hepatic cell lysate obtained from mice treated with Con A and various doses of the compound of formula (I).
Freshly harvested livers treated with Con A or PBS together with various doses of compound 33 were rinsed in cold PBS and homogenized into three volumes per weight of cold PBS containing 1% Nonidet P-40, 0.1 % SDS, 1 mM PMSF, and protease inhibitor cocktail tablet Complete™ (Boehnger Mannheim, used according to manufacturer's instruction). The homogenates were incubated on ice for 30 min. Samples were then centrifuged at 16,000 x g for 30 min at 4°C. Supernatants were transferred to fresh tubes and centrifuged for additional 30 min. Harvested lysates were precleared by incubating with protein G-sepharose (Pharmacia, Uppsala, Sweden) at 4 °C for overnight, gently shaking. Supernatants were harvested by centrifugation at 1000 x g for 30 sec. at 4 °C and separated on 7 % SDS-polyacrylamide gel and transferred to nitrocellulose membrane. Blots were blocked for 1 hr at room temperature in PBS containing 5% skimmed milk and 0.1% Tween 20 under gentle shaking. Membranes were then incubated overnight with 1:1000 diluted monoclonal anti-PARP antibody (Pharmingen) under gentle shaking. […]

[1] = system: Con A-induced acute hapatitis mice; experiment: Con A-induced acute hepatitis in mice: plasma aminotransferase activity; type: in vivo, Balb/c mice
Protocol: Female 6-week-old Balb/c mice (Charles River Laboratory, Osaka, Japan) were kept at 22 °C and 55% relative humidity in a 12-h day/night rhythm with free access to food and water. Con A was dissolved in pyrogen-free saline to a concentration of 2.5 mg/ml and was injected via the tail vein in an amount of 20mg/kg based on Con A. The animals were i.p. injected twice with compound 33 dissolved into a vehicle which consists of olive oil and 10% DMSO, or a vehicle alone, at 1 hr before and 4h after Con A injection. Animals were sacrificed by cervical dislocation at 24 hrs after Con A injection to obtain liver and blood samples.
Blood samples obtained at step 1 were collected at 24h after Con A injection. Plasma AST and ALT activity were measured using Autokit (Youngdong Pharmaceutical Co., Seoul, Korea) following manufacturer's instruction.

[2] = system: hepatocytes in ConA-treated mouse liver; experiment: Con A-treated mouse liver: histologic examination and detection of apoptosis (H&E, TUNEL); type: in vivo; details: ConA-treated mice, compound 33 4, 20, 100mg/kg
Protocol: The present inventors estimated the prevalence of apoptotic cells in the mouse liver to certify the apoptosis-blocking effect of the compound of the present invention specifically in hepatocytes. Mice were treated ConA in the presence or absence of various dosages of compound 33 [A and G: ConA and vehicle treatment, B and H: ConA and compound 33 4mg/kg treatment, C and I: ConA and compound 33 20mg/kg treatment, D and J: ConA and compound 33 100mg/kg treatment] to prepare frozen liver sections. Also, mice were treated with PBS and vehicle (E and K), or PBS and compound 33 100mg/kg (F and L) to prepare frozen liver sections. Freshly excised mouse liver was immediately immersed in 25 % sucrose solution at 4 °C for overnight, then frozen in liquid nitrogen, and cryosectioned into 4 µm.
For histological examination, liver sections were fixed in 1% buffered paraformaldehyde and stained with hematoxilin & eosin (Fig. 6A to F). To detect apoptotic cells in liver, frozen liver was stained using an ApopTag in situ apoptosis peroxidase detection kit (terminal deoxynucleotidyl transferase-mediated dUTP nick end labeling: TUNEL assay) (Oncor, Gaithersburg, MD) and DAKO liquid DAB (DAKO, Carpinteria, CA)(Fig. 6G to L). Staining was conducted according to manufacturer's instruction. After completion of staining, the samples were observed under an optical microscope. […]

WI38 cells = experiment: Protection from IFNγ and anti-Fas antibody-induced apoptosis (XTT); type: cell-based, human; details: 100% when Fas antibody was not treated; for viability ratio: WI38 cells
Protocol: WI38 cells (human embryonal lung fibroblast) were grown in a medium containing DMEM-10% FBS within 10cm diameter dishes until reaching at confluency. The cells were seeded into a 24-well plate at day 1 and incubated overnight while the volume of medium was maintained to 400µℓ. […] At day 3, each 100 µℓ of test compound was added to the cells after diluting the 10mM stock compound in DMSO to final concentrations of 50, 10, 2, and 0.4 µ M, respectively. The cells were incubated for 2 hrs in order for allowing the compound to enter into the cells and then treated with 40ng/well of anti-Fas antibody(apoptosis was induced 2 hrs after antibody was treated and the incubation was continued overnight). The control was not treated with Fas antibody. […] After coloring, 100-200µℓ of the supernatant was transferred to a 96-well plate and the absorbance at 490 nm was read with ELISA plate reader. For the blank, XTT solution was added to the well containing the medium only. Plotting was determined by comparing with the control group (100% when Fas antibody was not treated).

[3] = system: Recombinant human caspase; experiment: Inhibition of caspase activity in cell free system (chromogenic pNA substrates); type: biochemical; details: 100 µM compound, caspase-1, -2, -3, -4, -6, -7, -8 and -9, 200 µM chromogenic substrate, 37°C
Protocol: The pharmacological efficacy of the compound according to the present invention was evaluated by the following experiments. Con A was purchased from Boehringer Mannheim GmbH (Mannheim, Germany). Peptide-based substrates of caspases (Ac-YVAD-pNA for caspase-1, Ac-VDVAD for caspase-2, Ac-DEVD-pNA for caspase-3, 7, 8, and 9, Ac-LEVD-pNA for caspase-4, and Ac-VEID-pNA for caspase-6) and peptide-based caspase inhibitors (Ac-DEVD-fmk, z-VAD-CHO) were purchased from Alexis Co. (San Diego, CA). Ac-DEVD-CHO and z-DEVD-cmk were purchased from Bachem; Anti Fas antibody was purchased from Oncor (Cat#A8050); WI38 cell was available from ATCC; IFN-gamma was purchased from LG Pharmaceuticals (Korea). All cell culture-media and supplements were purchased from Gibco BRL (Tsuen Wan, Hong Kong) unless mentioned otherwise. […]
Caspase activity was tested by measuring proteolytic cleavage of peptide-based chromogenic substrate by each enzyme. […] Aliquots of the enzyme (2 µℓ containing catalytic activity of 0.2 absorbance at 405 nm/h) were mixed with 150 µℓ of 200 µM chromogenic substrate in the presence or absence of 100 µM compound 33 in 96-well plates. […] The absorbance of enzymatically released pNA was measured discontinuously at 405 nm in a microplate reader for I hr. The caspase activity was calculated from initial velocity (mean± SE)(n=4, in which n represents the number of repeated experiment).

For CC(C)[C@H](NC(=O)c1cccc2ccccc12)C1=NOC(Cc2ccccc2)(C(=O)N[C@@H](CC(=O)O)C(=O)COC(=O)c2c(Cl)cccc2Cl)C1 (stereo partly drawn) [Compound 33, (3S)-3-{3-[2-methyl-(1S)-1-(1-naphthalenecarbonylamino)-propyl]-5-phenylmethyl-4,5-dihydro-isoxazole-5-carbonylamino}-4-keto-5-(2,6-dichlorobenzoyloxy)-pentanoic acid], the “PARP cleavage (85 kDa-cleavage product) caused by Con A-induced apoptotic death of hepatic cells” value (PARP cleavage) was “gradually reduced as dose of compound 33 is increased”, the “AST and ALT activity, difference to Con A/vehicle group” value ([1]; 4mg/kg compound 33, second experiment (AST p=0.2972, ALT p=0.1378)) was “did not reached at statistically significant level” and the “AST and ALT activities compared with ConA/vehicle group” value ([1]; 20 mg/kg compound 33 (AST p=0.0174, ALT p=0.0011)) was “definitely reduced”. The “AST activity by the compound itself (liver toxicity)” value ([1]; compound alone without Con A, first experiment, not statistically significant (p=0.1033)) was “slightly increased AST activity by itself”, the “serum AST and ALT activity elevated by ConA” value ([1]; i.p. twice, 1 hr before and 4h after Con A 20mg/kg i.v., blood at 24h, across doses) was “suppressed the elevated enzyme activities in a dose-dependent manner” and the “apoptotic lesions in liver” value [2] was “reduced dose-dependently”. For the same compound, the “cellular histology of liver” value [2] was “gradually recovered with increasing dose”, the viability at 0.4 µM (WI38 cells; Homo sapiens, WI-38, WI38 cells, Conc. 0.4 µM, read-out: viability ratio) was 15.5% and the viability at 2 µM (WI38 cells; Homo sapiens, WI-38, WI38 cells, Conc. 2 µM, read-out: viability ratio) was 64.4%. For the same compound, the viability at 10 µM (WI38 cells; Homo sapiens, WI-38, WI38 cells, Conc. 10 µM, read-out: viability ratio) was 92.7%, the viability at 50 µM (WI38 cells; Homo sapiens, WI-38, WI38 cells, Conc. 50 µM, read-out: viability ratio) was 100% and the viability ratio (WI38 cells; Conc. 50 µM, 50 µM) was 100%. For the same compound, the viability ratio (WI38 cells; Conc. 50 µM, listed as Comp 33, 50 µM) was 100.21% and the “inhibition of recombinant caspase activity” value [3] was “almost completely inhibited all tested caspase activity, only except for caspase 2”.
